≈ marks a conversion by molar mass, not a printed value. Like-named read-outs stand apart in the source and are kept apart here. *1 amine or outer side, *2 acyl side, *3 side chain or, on linkers, in order; H or OH if unused. Where a SMILES comes first, the peptide text is derived from it. Bridges are numbered along the chain shown (N, C = ends). [ ]: non-standard residue; d: D form. The star is where a group is joined. GABA(3S-Bn) = O=C(C[C@@H](CN[*:1])Cc1ccccc1)[*:2]; X21 = NC[C@H](CC(=O)*)c1cc(Cl)cc(Cl)c1; X22 = CC(C)Cc1cccc([C@H](CN)CC(=O)*)c1; X3 = CC(C)c1cccc([C@@H](CN)CC(=O)*)c1; X9 = CC(C)c1cccc([C@H](CN)CC(=O)*)c1; X19 = NC[C@@H](CC(=O)*)c1cccc(Br)c1; X4 = NC[C@@H](CC(=O)*)c1ccc(Cl)cc1; X7 = NC[C@H](CC(=O)*)c1cccc(Cl)c1; dNle = CCCC[C@@H](N)C(=O)O; Dab = NCC[C@H](N)C(=O)O; Abu = CC[C@H](N)C(=O)O; Dap = NC[C@H](N)C(=O)O
Key:
HK-2 cells = assay: In vitro renal cell toxicity assay (HK-2); assay type: cell-based
Experimental: The in vitro renal cell toxicity assay was performed according to the following protocol. […] Cells were seeded at 7,500 cells per well in 96-well plates and allowed to adhere overnight. […] Water and DMSO levels were kept constant at 5% and 0.5% respectively. The test compounds were incubated with cells for 24 h at 37° C. 5% CO2 in a humidified atmosphere. […] Media only background values were subtracted before the data was analysed using GraphPad Prism. Individual values were normalised to the vehicle control wells for each compound. Compound concentration values were plotted as log values to enable a dose-response curve to be fitted. The bottom of the curve was constrained to zero and IC50 values were determined. IC50 values are expressed relative to that for PMB in the same experiment. Where multiple determinations have been made, median values are presented.

[1] = Kidney drug level after subcutaneous dose in mouse; assay type: in vivo
Experimental: Four hours after dosing the animals were euthanised and kidneys removed, trimmed of fat and connective tissue, weighed and immediately snap-frozen. After thawing at room temperature, pairs of kidneys from each animal were placed in 2 mL conical tubes containing pre-weighed ceria-stabilised zirconium oxide beads. […] After 10 min. centrifugation at 13,000 rpm and 6° C., 200 μl of the supernatants were transferred into glass inserts and analysed by LC-MS-MS.

E. coli CA58 = assay type: cell-based
Experimental: (§1) The inoculum was prepared by making a direct suspension of isolated colonies (selected from an 18-24 hour Mueller-Hinton agar plate) adjusted to the 0.5 McFarland standard. […] The assays were performed in duplicate. […] Several of the compounds were subjected to multiple tests, and where this is the case, the MIC presented is the median value obtained. The MIC values are quoted in μg/mL.

K. pneumoniae CA64 = assay type: cell-based
Experimental: as §1

P. aeruginosa CCUG 59347 = assay type: cell-based
Experimental: as §1

[2] = system: A. baumannii ATCC BAA-747; assay type: cell-based
Experimental: (§2) The inoculum was prepared by making a direct suspension of isolated colonies (selected from an 18-24 hour Mueller-Hinton agar plate) adjusted to the 0.5 McFarland standard. […] The assays were performed in duplicate. […] The MIC values are quoted in μg/mL.

A. baumannii NCTC 13424 = assay type: cell-based
Experimental: as §2

P. aeruginosa ATCC 27853 = assay type: cell-based
Experimental: as §2

K. pneumoniae ATCC 13822 = assay type: cell-based
Experimental: as §2

E. coli ATCC 25922 = assay type: cell-based
Experimental: as §2

[3] = IC50 relative to PMB in the same experiment, 24 h
[4] = mouse, in vivo, mice, 17.2 mg/kg free base sc, 4 h, read-out: 4 hr kidney level
[5] = cation-adjusted Mueller-Hinton Broth, 18-20 h, 35° C.

Compound | HK-2 rel to PMB (HK-2 cells) | MIC E. coli CA58 (E. coli CA58; CA58) [µg/mL] | MIC K. pneumoniae CA64 (K. pneumoniae CA64; CA64) [µg/mL] | MIC P. aeruginosa CCUG 59347 (P. aeruginosa CCUG 59347; CCUG 59347) [µg/mL] | MIC A. baumannii ATCC BAA-747 ([2]; ATCC BAA-747) [µg/mL] | MIC A. baumannii NCTC 13424 (A. baumannii NCTC 13424; NCTC 13424) [µg/mL] | MIC P. aeruginosa ATCC 27853 (P. aeruginosa ATCC 27853; ATCC 27853) [µg/mL] | MIC E. coli CA58 (E. coli CA58; [5]) [µg/mL] | MIC K. pneumoniae CA64 (K. pneumoniae CA64; [5]) [µg/mL] | MIC P. aeruginosa CCUG 59347 (P. aeruginosa CCUG 59347; [5]) [µg/mL] | MIC K. pneumoniae ATCC 13822 (K. pneumoniae ATCC 13822; [5]) [µg/mL] | MIC E. coli ATCC 25922 (E. coli ATCC 25922; [5]) [µg/mL] | MIC P. aeruginosa ATCC 27853 (P. aeruginosa ATCC 27853; [5]) [µg/mL] | further results
CC(C)C[C@@H]1NC(=O)[C@@H](Cc2ccccc2)NC(=O)[C@H](CCN)NC(=O)[C@@H](NC(=O)[C@H](CN)NC(=O)[C@@H](NC(=O)C[C@H](CN)c2ccc(Cl)cc2)[C@@H](C)O)CCNC(=O)[C@H]([C@@H](C)O)NC(=O)[C@H](CCN)NC(=O)[C@H](CCN)NC1=O [Example 1, (S)-4-amino-3-(4- chlorophenyl) butanoyl- Thr- Dap-Cyclo[Dab- Dab-DPhe-Leu-Dab- Dab-Thr]] (X4-T[Dap][Dab][Dab][dF]L[Dab][Dab]T; lactam 3-C) | 8.8 | 4 (≈ 3.49 µM) | 8 (≈ 6.99 µM) | 0.25 (≈ 0.218 µM) | 0.06 (≈ 0.0524 µM) | 0.06 (≈ 0.0524 µM) | 0.06 (≈ 0.0524 µM) |  |  |  |  |  |  | 4 hr kidney level/rel. cytotoxicity ([1]; mouse, in vivo): 30; Drug Level in Kidney (μg/g kidney, 4 h) ([1]; mouse, in vivo, sc, 17.2 mg/kg): 268 μg/g kidney; tissue level at time at 4 h ([1]; mouse, in vivo, sc, 17.2 mg/kg): 267000 ng/g
CC(C)C[C@@H]1NC(=O)[C@@H](Cc2ccccc2)NC(=O)[C@H](CCN)NC(=O)[C@@H](NC(=O)[C@H](CN)NC(=O)[C@@H](NC(=O)C[C@@H](CN)c2cccc(Cl)c2)[C@@H](C)O)CCNC(=O)[C@H]([C@@H](C)O)NC(=O)[C@H](CCN)NC(=O)[C@H](CCN)NC1=O [Example 6, (R)-4-amino-3-(3- chlorophenyl) butanoyl- Thr-Dap-Cyclo[Dab- Dab-DPhe-Leu-Dab- Dab-Thr]] (X7-T[Dap][Dab][Dab][dF]L[Dab][Dab]T; lactam 3-C) | 7.8 | 8 (≈ 6.99 µM) | 8 (≈ 6.99 µM) | 0.5 (≈ 0.437 µM) | 0.5 (≈ 0.437 µM) | 0.5 (≈ 0.437 µM) |  |  |  |  |  |  |  | 4 hr kidney level/rel. cytotoxicity ([1]; mouse, in vivo): 49
CC(C)C[C@@H]1NC(=O)[C@@H](Cc2ccccc2)NC(=O)[C@H](CCN)NC(=O)[C@@H](NC(=O)[C@H](CN)NC(=O)[C@@H](NC(=O)C[C@@H](CN)Cc2ccccc2)[C@@H](C)O)CCNC(=O)[C@H]([C@@H](C)O)NC(=O)[C@H](CCN)NC(=O)[C@H](CCN)NC1=O [Example 10, (S)-4-amino-3- benzylbutanoyl-Thr- Dap-Cyclo[Dab-Dab- DPhe-Leu-Dab-Dab- Thr]. Isomer 2] ({GABA(3S-Bn)}-T[Dap][Dab][Dab][dF]L[Dab][Dab]T; lactam 3-C) |  |  |  |  |  |  |  | 8 (≈ 7.12 µM) | 16 (≈ 14.2 µM) | 0.25 (≈ 0.222 µM) | 0.5 (≈ 0.445 µM) |  |  | HK-2 rel to PMB (HK-2 cells; [3]): 8; Drug level in kidney ([1]; mouse, 17.2 mg/kg sc, 4 hours): 346 µg/g; tissue level at time at 4 h [1, 4]: 346000 ng/g; 4 hr kidney level/rel. cytotoxicity ([1]; ratio of 4 h kidney level to HK-2 IC50 relative to PMB): 43; MIC A. baumannii ATCC BAA-747 [2, 5]: 0.25 µg/mL (≈ 0.222 µM); MIC A. baumannii NCTC 13424 (A. baumannii NCTC 13424; [5]): 0.25 µg/mL (≈ 0.222 µM)
CC(C)C[C@@H]1NC(=O)[C@@H](CC(C)C)NC(=O)[C@H](CCN)NC(=O)[C@@H](NC(=O)[C@H](CN)NC(=O)[C@@H](NC(=O)C[C@H](CN)c2cccc(C(C)C)c2)[C@@H](C)O)CCNC(=O)[C@H]([C@@H](C)O)NC(=O)[C@H](CCN)NC(=O)[C@H](CCN)NC1=O [Example 15, (S)-4-amino-3-(3- isopropylphenyl) butanoyl-Thr-Dap- Cyclo[Dab-Dab-DLeu- Leu-Dab-Dab-Thr]] (X3-T[Dap][Dab][Dab][dL]L[Dab][Dab]T; lactam 3-C) | 52.1 | 4 (≈ 3.58 µM) | 16 (≈ 14.3 µM) | 0.5 (≈ 0.447 µM) | 0.06 (≈ 0.0536 µM) | 0.06 (≈ 0.0536 µM) | 0.25 (≈ 0.224 µM) |  |  |  |  |  |  | tissue level at time at 4 h ([1]; mouse, in vivo, sc, 17.2 mg/kg): 443000 ng/g
CC[C@@H]1NC(=O)[C@@H](Cc2ccccc2)NC(=O)[C@H](CCN)NC(=O)[C@@H](NC(=O)[C@H](CN)NC(=O)[C@@H](NC(=O)C[C@@H](CN)c2cccc(C(C)C)c2)[C@@H](C)O)CCNC(=O)[C@H]([C@@H](C)O)NC(=O)[C@H](CCN)NC(=O)[C@H](CCN)NC1=O [Example 18] (X9-T[Dap][Dab][Dab][dF][Abu][Dab][Dab]T; lactam 3-C) |  |  |  |  |  |  |  | 16 (≈ 14.2 µM) | 8 (≈ 7.12 µM) | 0.25 (≈ 0.222 µM) | 0.25 (≈ 0.222 µM) | 0.25 (≈ 0.222 µM) | 0.25 (≈ 0.222 µM) | HK-2 rel to PMB (HK-2 cells; [3]): 32.8; tissue level at time at 4 h [1, 4]: 535000 ng/g
CC[C@@H]1NC(=O)[C@@H](CC(C)C)NC(=O)[C@H](CCN)NC(=O)[C@@H](NC(=O)[C@H](CN)NC(=O)[C@@H](NC(=O)C[C@@H](CN)c2cccc(CC(C)C)c2)[C@@H](C)O)CCNC(=O)[C@H]([C@@H](C)O)NC(=O)[C@H](CCN)NC(=O)[C@H](CCN)NC1=O [Example 27, (R)-4-amino-3-(3- isobutylphenyl)butanoyl- Thr- Dap- Cyclo[Dab-Dab-DLeu- Abu-Dab-Dab-Thr]] (X22-T[Dap][Dab][Dab][dL][Abu][Dab][Dab]T; lactam 3-C) |  | 16 (≈ 14.5 µM) | 2 (≈ 1.81 µM) | 0.5 (≈ 0.453 µM) |  |  | 0.5 (≈ 0.453 µM) |  |  |  |  |  |  | MIC E. coli ATCC 25922 (E. coli ATCC 25922; ATCC 25922): 0.25 µg/mL (≈ 0.226 µM); MIC K. pneumoniae ATCC 13822 (K. pneumoniae ATCC 13822; ATCC 13822): 0.25 µg/mL (≈ 0.226 µM)
CCCC[C@H]1NC(=O)[C@H](CCN)NC(=O)[C@@H](NC(=O)[C@H](CN)NC(=O)[C@@H](NC(=O)C[C@@H](CN)c2cc(Cl)cc(Cl)c2)[C@@H](C)O)CCNC(=O)[C@H]([C@@H](C)O)NC(=O)[C@H](CCN)NC(=O)[C@H](CCN)NC(=O)[C@H](CC)NC1=O [Example 29, (R)-4-amino-3-(3,5- dichlorophenyl)butanoyl- Thr-Dap- Cyclo[Dab-Dab- DnorLeu-Abu-Dab- Dab-Thr]] (X21-T[Dap][Dab][Dab][dNle][Abu][Dab][Dab]T; lactam 3-C) |  |  |  |  |  |  |  | 16 (≈ 14.3 µM) | 8 (≈ 7.16 µM) | 0.5 (≈ 0.448 µM) | 0.25 (≈ 0.224 µM) | 0.25 (≈ 0.224 µM) | 0.25 (≈ 0.224 µM) | 
CC[C@@H]1NC(=O)[C@@H](CC(C)C)NC(=O)[C@H](CCN)NC(=O)[C@@H](NC(=O)[C@H](CN)NC(=O)[C@@H](NC(=O)C[C@H](CN)c2cccc(Br)c2)[C@@H](C)O)CCNC(=O)[C@H]([C@@H](C)O)NC(=O)[C@H](CCN)NC(=O)[C@H](CCN)NC1=O [Example 32, (S)-4-amino-3-(3- bromophenyl)butanoyl- Thr-Dap-Cyclo[Dab- Dab-DLeu-Abu-Dab- Dab-Thr]] (X19-T[Dap][Dab][Dab][dL][Abu][Dab][Dab]T; lactam 3-C) |  |  |  |  |  |  |  | 32 (≈ 28.4 µM) | 32 (≈ 28.4 µM) | 0.5 (≈ 0.444 µM) | 0.5 (≈ 0.444 µM) | 0.25 (≈ 0.222 µM) | 0.5 (≈ 0.444 µM) | 
